Source: patent publication US20250368628A1, “METHODS AND COMPOUNDS FOR MODULATING INHERITED GENETIC DISEASES” (Design Therapeutics, Inc., priority 2022, published 2025)

How the values were obtained:
[1] = tested on: Myotonic Dystrophy 1 affected patient fibroblasts (Coriel GM04602; 1600 CTG repeats); assay: DM1 foci reduction assay (EC50 assay; CAG10-Cy3 FISH, foci per nucleus); assay type: cell-based; conditions: Homo sapiens, Fibroblast; DM1 patient fibroblasts, 48 h treatment, foci per nucleus; read-out: DM1 EC50, 48 h
Summary of the method: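 Foci per nucleus counted by 20× imaging of 4 areas per well, after overnight FISH with 5 nM CAG10-Cy3 and DAPI staining of fixed, permeabilized cells. DM1 fibroblasts (GM04602, 1600 CTG) were dosed 48 h at 37 °C, 8 points, 3-fold dilutions, 3 μM top concentration.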

F35T cells = assay: Foci reduction in FECD (CAG10-Cy3 FISH, foci per nucleus); assay type: cell-based; conditions: F35T cells, 48 h treatment, foci per nucleus; read-out: FECD EC50, 48 h
Protocol: F35T cells were cultured in media containing Opti-MEM (ThermoFisher) supplemented with 8% FBS, 20 μg/mL ascorbic acid, […] CaCl2, 0.08% chondroitin sulfate, 1×Pen/Strep, 100 μg/mL bovine pituitary extract, 5 ng/mL epidermal growth factor, and 20 ng/mL nerve growth factor. Throughout the culture, cells were maintained in an incubator at 37° C. and 5% CO2. Media was refreshed every 48 hours. Once cells reached adequate confluency, they were harvested and seeded in 96 well plates with a density of 5000 cells per well in 200 μL of the supplemented Opti-MEM media. Cells were returned to the incubator and left to settle for 24 hours at 37° C. and 5% CO2. Cells were then treated in 8-point dose response with compounds or negative controls and incubated for 48 hours at 37° C. and 5% CO2. After treatment, cells were fixed with 4% PFA for 20 minutes at room temperature, followed by permeabilization with 70% ethanol. Cells were incubated at −20° C. for a minimum of 1 hour and maximum of 72 hours, after which the ethanol was removed, and cells were washed with PBS. Cells were rehydrated with 30% formamide and 2×SSC buffer for 10 minutes at room temperature. Cells were then incubated overnight at 37° C. in the hybridization solution containing 30% formamide, 2×SSC, 55 mg/mL dextran sulfate, 2.75 mg/mL bovine serum albumin, 0.2 μg/mL Herring sperm DNA, 1% vanadyl-ribonucleoside complex, and 0.05% 10 μM CAG10-Cy3 probe. Cells were washed twice with 30% formamide in 2×SSC, incubating the cells while shaking with the second wash at 37° C. and 200 rpm for 60 minutes. Cells were stained with 5 mg/mL DAPI 1:1000 in PBS, incubating at room temperature for 5 minutes. Cells were then washed with PBS and sealed with adhesive foil, with each well containing a final volume of 150 μL PBS. Cells were imaged on a Cytation 5 and analyzed on a foci per nucleus basis.

| SMILES | EC50 [1] [nM] | EC50 (F35T cells) [nM] |
| --- | --- | --- |
| CCCNC(=O)c1nc(NC(=O)CCNC(=O)c2cc(NC(=O)c3nc(NC(=O)CCCNC(=O)c4cc(NC(=O)c5nc(NC(=O)CCNC(=O)c6cc(NC(=O)c7nccn7C)cn6C)cn5C)cn4C)cn3C)cn2C)cn1C [Compound B-44] | > 1000 | > 1000 |
| Cn1cc(NC(=O)c2nc(NC(=O)CCNC(=O)c3cc(NC(=O)c4nccn4C)cn3C)cn2C)cc1C(=O)NCCCC(=O)Nc1cn(C)c(C(=O)NCCC(=O)Nc2cc(C(=O)Nc3cn(C)c(C(=O)NCCC(=O)NCCCCN=[N+]=[N-])n3)n(C)c2)n1 [Compound B-45] | < 100 | 500 to 1000 |
| Cn1cc(NC(=O)c2nc(NC(=O)CCNC(=O)c3cc(NC(=O)c4nccn4C)cn3C)cn2C)cc1C(=O)NCCCC(=O)Nc1cn(C)c(C(=O)NCCC(=O)Nc2cc(C(=O)Nc3cn(C)c(C(=O)NCCC(=O)NC(CO)(CO)CO)n3)n(C)c2)n1 [Compound B-46] | 500 to 1000 | 100 to 500 |
| Cn1cc(NC(=O)c2nc(NC(=O)CCNC(=O)c3cc(NC(=O)c4nccn4C)cn3C)cn2C)cc1C(=O)NCCCC(=O)Nc1cn(C)c(C(=O)NCCC(=O)Nc2cc(C(=O)Nc3cn(C)c(C(=O)NCCC(=O)NC(C)(C)C)n3)n(C)c2)n1 [Compound B-47] | 100 to 500 | 100 to 500 |
| Cn1cc(NC(=O)c2nc(NC(=O)CCNC(=O)c3cc(NC(=O)c4nccn4C)cn3C)cn2C)cc1C(=O)NCCCC(=O)Nc1cn(C)c(C(=O)NCCC(=O)Nc2cc(C(=O)Nc3cn(C)c(C(=O)NCCC(=O)N4CCOCC4)n3)n(C)c2)n1 [Compound B-48] | 100 to 500 | 100 to 500 |
| Cn1cc(NC(=O)c2nc(NC(=O)CCNC(=O)c3cc(NC(=O)c4nccn4C)cn3C)cn2C)cc1C(=O)NCCCC(=O)Nc1cn(C)c(C(=O)NCCC(=O)Nc2cc(C(=O)Nc3cn(C)c(C(=O)NCCC(=O)N4CCNCC4)n3)n(C)c2)n1 [Compound B-49] | 100 to 500 | 100 to 500 |
| CCCN(CCC)C(=O)CCNC(=O)c1nc(NC(=O)c2cc(NC(=O)CCNC(=O)c3nc(NC(=O)CCCNC(=O)c4cc(NC(=O)c5nc(NC(=O)CCNC(=O)c6cc(NC(=O)c7nccn7C)cn6C)cn5C)cn4C)cn3C)cn2C)cn1C [Compound B-50] | 100 to 500 | < 100 |
| Cn1cc(NC(=O)c2nc(NC(=O)CCNC(=O)c3cc(NC(=O)c4nccn4C)cn3C)cn2C)cc1C(=O)NCCCC(=O)Nc1cn(C)c(C(=O)NCCC(=O)Nc2cc(C(=O)Nc3cn(C)c(C(=O)NCCC(=O)NCCCO)n3)n(C)c2)n1 [Compound B-52] | < 100 | < 100 |
| CCCNC(=O)CCNC(=O)c1nc(NC(=O)c2cc(NC(=O)CCNC(=O)c3nc(NC(=O)CCCNC(=O)c4cc(NC(=O)c5nc(NC(=O)CCNC(=O)c6cc(NC(=O)c7nccn7C)cn6C)cn5C)cn4C)cn3C)cn2CCCCCCN)cn1C [Compound B-57] | 100 to 500 | 500 to 1000 |
| CCCNC(=O)CCNC(=O)c1nc(NC(=O)c2cc(NC(=O)CCNC(=O)c3nc(NC(=O)CCCNC(=O)c4cc(NC(=O)c5nc(NC(=O)CCNC(=O)c6cc(NC(=O)c7nccn7C)cn6C)cn5C)cn4CCCCCCN=[N+]=[N-])cn3C)cn2C)cn1C [Compound B-58] | < 100 | < 100 |
| CCCNC(=O)CCNC(=O)c1nc(NC(=O)c2cc(NC(=O)CCNC(=O)c3nc(NC(=O)CCCNC(=O)c4cc(NC(=O)c5nc(NC(=O)CCNC(=O)c6cc(NC(=O)c7nccn7C)cn6C)cn5C)cn4CCCCCCN)cn3C)cn2C)cn1C [Compound B-59] | 100 to 500 | 100 to 500 |
| CCCNC(=O)CCNC(=O)c1nc(NC(=O)c2cc(NC(=O)CCNC(=O)c3nc(NC(=O)CCCNC(=O)c4cc(NC(=O)c5nc(NC(=O)CCNC(=O)c6cc(NC(=O)c7nccn7C)cn6C)cn5C)cn4C)cn3C)c[nH]2)cn1C [Compound B-63] | 100 to 500 | 100 to 500 |
| Cn1cc(NC(=O)c2nc(NC(=O)CCNC(=O)c3cc(NC(=O)c4nccn4C)cn3C)cn2C)cc1C(=O)NCCCC(=O)Nc1cn(C)c(C(=O)NCCC(=O)Nc2cc(C(=O)Nc3cn(C)c(C(=O)NCCC(=O)N4CC(c5cnc(CNC(=O)OCc6ccccc6)[nH]5)C4)n3)n(C)c2)n1 [Compound B-68] | 100 to 500 | 100 to 500 |
| CN(C)Cc1ncc(C2CN(C(=O)CCNC(=O)c3nc(NC(=O)c4cc(NC(=O)CCNC(=O)c5nc(NC(=O)CCCNC(=O)c6cc(NC(=O)c7nc(NC(=O)CCNC(=O)c8cc(NC(=O)c9nccn9C)cn8C)cn7C)cn6C)cn5C)cn4C)cn3C)C2)[nH]1 [Compound B-69] | 100 to 500 | 100 to 500 |
| Cn1cc(NC(=O)c2nc(NC(=O)CCNC(=O)c3cc(NC(=O)c4nccn4C)cn3C)cn2C)cc1C(=O)NCCCC(=O)Nc1cn(C)c(C(=O)NCCC(=O)Nc2cc(C(=O)Nc3cn(C)c(C(=O)NCCC(=O)N4CC(c5cnc(CNC(=O)c6ccc(C(C)(C)C)cc6)[nH]5)C4)n3)n(C)c2)n1 [Compound B-71] | 100 to 500 | 100 to 500 |
| CN(C)C(=NCCCNC(=O)CCNC(=O)c1nc(NC(=O)c2cc(NC(=O)CCNC(=O)c3nc(NC(=O)CCCNC(=O)c4cc(NC(=O)c5nc(NC(=O)CCNC(=O)c6cc(NC(=O)c7nccn7C)cn6C)cn5C)cn4C)cn3C)cn2C)cn1C)N(C)C [Compound B-72] | 500 to 1000 | > 1000 |
| Cn1cc(NC(=O)c2nc(NC(=O)CCNC(=O)c3cc(NC(=O)c4nccn4C)cn3C)cn2C)cc1C(=O)NCCCC(=O)Nc1cn(C)c(C(=O)NCCC(=O)Nc2cc(C(=O)Nc3cn(C)c(C(=O)NCCC(=O)OCC(N)(CO)CO)n3)n(C)c2)n1 [Compound B-73] | 500 to 1000 | > 1000 |
| CCCNC(=O)CCNC(=O)c1nc(NC(=O)CCNC(=O)c2cc(NC(=O)c3nc(NC(=O)CCCNC(=O)c4cc(NC(=O)c5nc(NC(=O)CCNC(=O)c6cc(NC(C)c7nccn7C)cn6C)cn5C)cn4C)cn3C)cn2C)cn1C (stereo not shown) [Compound B-74] | > 1000 | 500 to 1000 |
| CC(Nc1cc(C(=O)NCCC(=O)Nc2cn(C)c(C(=O)Nc3cc(C(=O)NCCCC(=O)Nc4cn(C)c(C(=O)Nc5cc(C(=O)NCCC(=O)Nc6cn(C)c(C(=O)NCCC(=O)NCCCCN=[N+]=[N-])n6)n(C)c5)n4)n(C)c3)n2)n(C)c1)c1nccn1C (stereo not shown) [Compound B-75] | 500 to 1000 | > 1000 |
| CC(=O)NCCOCCOCCOCCOCCOCCNC(=O)CCNC(=O)c1nc(NC(=O)c2cc(NC(=O)CCNC(=O)c3nc(NC(=O)CCCNC(=O)c4cc(NC(=O)c5nc(NC(=O)CCNC(=O)c6cc(NC(C)c7nccn7C)cn6C)cn5C)cn4C)cn3C)cn2C)cn1C (stereo not shown) [Compound B-76] | 100 to 500 | 100 to 500 |
| CC(Nc1cc(C(=O)NCCC(=O)Nc2cn(C)c(C(=O)Nc3cc(C(=O)NCCCC(=O)Nc4cn(C)c(C(=O)NCCC(=O)Nc5cc(C(=O)Nc6cn(C)c(C(=O)NCCC(=O)NCCOCCOCCOCCOCCOCCN)n6)n(C)c5)n4)n(C)c3)n2)n(C)c1)c1nccn1C (stereo not shown) [Compound B-77] | 100 to 500 | 100 to 500 |
| COCCOCCOCCOCCOCCOCCNC(=O)CCNC(=O)c1nc(NC(=O)c2cc(NC(=O)CCNC(=O)c3nc(NC(=O)CCCNC(=O)c4cc(NC(=O)c5nc(NC(=O)CCNC(=O)c6cc(NC(C)c7nccn7C)cn6C)cn5C)cn4C)cn3C)cn2C)cn1C (stereo not shown) [Compound B-78] | 100 to 500 | 100 to 500 |
| COCCOCCOCCOCCN(CCOCCOCCOCCOC)C(=O)CCNC(=O)c1nc(NC(=O)c2cc(NC(=O)CCNC(=O)c3nc(NC(=O)CCCNC(=O)c4cc(NC(=O)c5nc(NC(=O)CCNC(=O)c6cc(NC(C)c7nccn7C)cn6C)cn5C)cn4C)cn3C)cn2C)cn1C (stereo not shown) [Compound B-79] | 100 to 500 | > 1000 |
| CC(Nc1cc(C(=O)NCCC(=O)Nc2cn(C)c(C(=O)Nc3cc(C(=O)NCCCC(=O)Nc4cn(C)c(C(=O)NCCC(=O)Nc5cc(C(=O)Nc6cn(C)c(C(=O)NCCC(=O)NCCOCCOCCOCCOCCOCCOCCOCCOCCOCCOCCN)n6)n(C)c5)n4)n(C)c3)n2)n(C)c1)c1nccn1C (stereo not shown) [Compound B-81] | > 1000 | > 1000 |
| CC(=O)NCCOCCOCCOCCOCCOCCOCCOCCOCCOCCOCCNC(=O)CCNC(=O)c1nc(NC(=O)c2cc(NC(=O)CCNC(=O)c3nc(NC(=O)CCCNC(=O)c4cc(NC(=O)c5nc(NC(=O)CCNC(=O)c6cc(NC(C)c7nccn7C)cn6C)cn5C)cn4C)cn3C)cn2C)cn1C (stereo not shown) [Compound B-82] | 100 to 500 | 100 to 500 |
| CCN(CC)CCCC[C@H](NC(=O)C(C)(C)C)C(=O)NCCOCCOCCOCCOCCOCCNC(=O)CCNC(=O)c1nc(NC(=O)c2cc(NC(=O)CCNC(=O)c3nc(NC(=O)CCCNC(=O)c4cc(NC(=O)c5nc(NC(=O)CCNC(=O)c6cc(NC(=O)c7nccn7C)cn6C)cn5C)cn4C)cn3C)cn2C)cn1C [Compound B-90] | 500 to 1000 | > 1000 |
